Laboratory results published in PubChem BioAssay AID652280 (Broad Institute, 2013).
Records with an inconclusive call do not appear. Calls of active or inactive are those of the source. The rule behind the calls is not given here.

Experiment: NIH/3T3 fibroblast cytotoxicity, dose response, cytotoxicity control, cell-based, plate reader, dry powder, set 2 (AID 652280)
Conditions: NIH/3T3 mouse fibroblast toxicity, plate reader; at 16 µM (top of the series)

Structure (SMILES) | activity change, negative = toxicity
C[C@@H]1CCCCO[C@H](CN(C)C(=O)Nc2cccc3ccccc23)[C@@H](C)CN([C@H](C)CO)C(=O)c2cc(N(C)C)ccc2O1 | -0.649% (inactive)
Cc1ccc(CN(C)C[C@H]2Oc3c(NC(=O)c4ccncc4)cccc3C(=O)N([C@@H](C)CO)C[C@@H]2C)cc1 | -16.5% (inactive)
Cc1cccc(-c2ccc([C@H]3[C@H](CO)N4CCCCN(C(=O)c5cccnc5)C[C@@H]34)cc2)c1 | -10.6% (inactive)
CN(C)CC#Cc1cccc(-c2nc(C(=O)O)cc3c2[C@H](CCO)N(S(=O)C(C)(C)C)C3)c1 (stereo partly specified) | -1.94% (inactive)
CCC(=O)N1CC[C@@H]2[C@H]1c1cc(Br)ccc1N(C)[C@@H]2CO | -1.86% (inactive)
CC(C)N1C[C@@H](CN(C)Cc2ccc(Cl)cc2)Oc2c(NC(=O)c3ccnn3C)cccc2C1=O | 5.57% (inactive)
C[C@H]1CN([C@@H](C)CO)C(=O)c2cccc(NC(=O)c3ccncc3)c2O[C@@H]1CN(C)Cc1ccc(Cl)c(F)c1 | -25.3% (inactive)
CN(C)C(=O)c1ccc(-c2ccc([C@H]3[C@H](CO)N4CCCCN(C(=O)C5CCCC5)C[C@@H]34)cc2)cc1 | -15.7% (inactive)
C[C@H]1CN([C@@H](C)CO)C(=O)c2cccc(NC(=O)c3ccncc3)c2O[C@@H]1CN(C)Cc1cccc(C(F)(F)F)c1 | -10.7% (inactive)
CC(C)N1C[C@H](C)[C@@H](CN(C)Cc2ccc(Cl)c(Cl)c2)Oc2c(cccc2-c2nn[nH]n2)C1=O | -0.771% (inactive)
CC(C)N1C[C@@H](C)[C@H](CN(C)Cc2ccc(Oc3ccccc3)cc2)Oc2c(cccc2N(C)C(=O)c2ccncc2)C1=O | -4.89% (inactive)
C[C@@H]1CN([C@@H](C)CO)C(=O)c2cccc(NC(=O)c3ccncc3)c2O[C@H]1CN(C)C | -10.2% (inactive)
CC(C)N1CC2(CN(Cc3ccc(F)c(F)c3)C2)Oc2c(NC(=O)c3ccncc3)cccc2C1=O | -3.93% (inactive)
COc1cccc(-c2ccc([C@H]3[C@H](CO)N4CCCCN(C(=O)Cc5ccncc5)C[C@@H]34)cc2)c1 | -1.62% (inactive)
CN(C)C(=O)c1cccc(-c2ccc([C@H]3[C@H](CO)N4CCCCN(CC5CCOCC5)C[C@@H]34)cc2)c1 | 20% (inactive)
CC(C)N1CC2(CN(C(=O)c3ccc(Cl)cc3)C2)Oc2c(NC(=O)c3ccncc3)cccc2C1=O | 10.5% (inactive)
CC(C)N1C[C@@H](CN(C)Cc2ccc(Cl)cc2)Oc2c(NC(=O)c3ccccc3)cccc2C1=O | 9.38% (inactive)
CN(C)C(=O)c1cccc(-c2ccc([C@H]3[C@@H](CO)N4CCCCN(C(=O)C5CCC5)C[C@H]34)cc2)c1 | 9.2% (inactive)
CC(C)(O)C#Cc1cccc(-c2nc(C(=O)NCc3ccc4c(c3)OCO4)cc3c2[C@H](CCO)N(S(=O)C(C)(C)C)C3)c1 (stereo partly specified) | -19.2% (inactive)
CN(C)C(=O)c1cccc(-c2ccc([C@H]3[C@H](CO)N4CCCCN(Cc5cccnc5)C[C@@H]34)cc2)c1 | -3% (inactive)
CC(C)N1C[C@@H](C)[C@H](CN(C)C(=O)OC(C)(C)C)Oc2c(C(=O)Nc3ccncc3)cccc2C1=O | -10.9% (inactive)
CNC[C@@H]1Oc2c(NC(=O)c3ccncc3)cccc2C(=O)N(C(C)C)C[C@H]1C | 1.96% (inactive)
CC(C)N1C[C@@H](CN)Oc2c(NC(=O)c3ccncc3)cccc2C1=O | 22.7% (inactive)
COCC(=O)N1CCCCN2[C@@H](CO)[C@H](c3ccc(-c4cccc(C)c4)cc3)[C@@H]2C1 | -12.3% (inactive)
Cc1cccc(-c2ccc([C@H]3[C@H](CO)N4CCCCN(C(=O)c5ccncc5)C[C@@H]34)cc2)c1 | -19.7% (inactive)
C[C@@H]1CN([C@@H](C)CO)C(=O)c2cc(-c3cncnc3)cnc2O[C@H]1CN(C)Cc1ccc(Oc2ccccc2)cc1 | -26.5% (inactive)
